Source: ChEMBL document CHEMBL1142680, “Improving specificity vs bacterial thymidylate synthases through N-dansyl modulation of didansyltyrosine” (J Med Chem, 2005)
pKi: −log10 of the molar value.

How the values were obtained:
Thymidylate synthase [1] = target: Thymidylate synthase (Escherichia coli, UniProt C3SWJ7); experiment: Inhibitory constant against thymidylate synthase from Escherichia coli
Thymidylate synthase [2] = target: T1, Thymidylate synthase (Lactobacillus casei, UniProt P00469); experiment: Inhibitory constant against thymidylate synthase from Lactobacillus casei; set-up: species or system Lacticaseibacillus casei
T1 sequence (P00469 whole entry): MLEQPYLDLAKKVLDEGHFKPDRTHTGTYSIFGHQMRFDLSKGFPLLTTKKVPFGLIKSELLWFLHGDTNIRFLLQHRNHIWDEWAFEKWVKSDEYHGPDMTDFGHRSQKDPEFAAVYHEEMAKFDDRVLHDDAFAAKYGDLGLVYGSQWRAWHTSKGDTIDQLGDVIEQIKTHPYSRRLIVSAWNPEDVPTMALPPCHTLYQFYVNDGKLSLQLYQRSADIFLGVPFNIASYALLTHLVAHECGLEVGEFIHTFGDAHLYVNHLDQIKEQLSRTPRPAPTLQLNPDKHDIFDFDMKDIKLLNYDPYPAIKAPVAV

Sequence of Thymidylate synthase (Escherichia coli, UniProt C3SWJ7) (C3SWJ7 whole entry): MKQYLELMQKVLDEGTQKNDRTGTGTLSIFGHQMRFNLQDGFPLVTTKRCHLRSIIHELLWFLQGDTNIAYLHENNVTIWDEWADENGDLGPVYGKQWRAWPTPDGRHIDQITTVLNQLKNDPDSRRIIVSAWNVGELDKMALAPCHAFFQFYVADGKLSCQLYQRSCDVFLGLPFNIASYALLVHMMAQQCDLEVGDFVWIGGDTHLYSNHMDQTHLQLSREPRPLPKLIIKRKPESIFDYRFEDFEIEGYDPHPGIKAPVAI

pKi (Thymidylate synthase [1])	pKi (Thymidylate synthase [2])	SMILES
5.74	5.85	CN(C)c1cccc2c(S(=O)(=O)N[C@@H](Cc3ccc(OS(=O)(=O)c4cccc5c(N(C)C)cccc45)cc3)C(=O)O)cccc12
4.82	5.80	CN(C)c1cccc2c(S(=O)(=O)Oc3ccc(C[C@H](NS(=O)(=O)c4cc5nnoc5c5ccccc45)C(=O)O)cc3)cccc12
6.52	6.30	CN(C)c1cccc2c(S(=O)(=O)Oc3ccc(C[C@H](NS(=O)(=O)c4cccc5cc(N)ccc45)C(=O)O)cc3)cccc12
5.03	7.00	CN(C)c1cccc2c(S(=O)(=O)Oc3ccc(C[C@H](NS(=O)(=O)c4cccc5c(NC(=O)OCc6ccccc6)cccc45)C(=O)O)cc3)cccc12
6.52	6.52	CN(C)c1cccc2c(S(=O)(=O)Oc3ccc(C[C@H](NS(=O)(=O)c4cccc5cc([N+](=O)[O-])ccc45)C(=O)O)cc3)cccc12
5.82	5.77	CN(C)c1cccc2c(S(=O)(=O)Oc3ccc(C[C@H](NS(=O)(=O)c4ccc(NC(=O)OCc5ccccc5)c5ccccc45)C(=O)O)cc3)cccc12
